The supplement of paper PMC10331698
± gives the standard deviation of the averaged measurements.

Tests used:
Assay in all cases: level (log10 ratio to DMSO vehicle control); higher = higher biomarker level / cell amount than vehicle control
[1] = compound: C=CC(=O)OCC(F)(F)C(F)(F)C(F)(F)C(F)(F)COC(=O)C=C [1H,1H,6H,6H-Perfluorohexane-1,6-diol diacrylate]; conditions: 6700 nM; in DMSO
Method: (§1)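 BioMAP Diversity Plus panel of 12 human primary cell co-culture systems (3C, 4H, LPS, SAg, BT, BF4T, BE3C, CASM3C, HDF3CGF, KF3CT, MyoF, Mphg). Compounds were added 1 h before stimulation and left for 24 h (MyoF 48 h; BT 72 h for soluble read-outs or 6 d for IgG). Biomarkers were read by ELISA, cytotoxicity by SRB, PBMC viability and proliferation by Alamar Blue. Each well value was divided by the mean of 8 DMSO control wells on the same plate and log10 transformed; duplicate blinded samples were tested at 4 concentrations.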

[2] = compound: C=CC(=O)OCCC(F)(F)C(F)(F)C(F)(F)C(F)(F)C(F)(F)C(F)(F)C(F)(F)C(F)(F)F [8:2 Fluorotelomer acrylate]; conditions: in DMSO
Method: as §1

[3] = compound: FC(F)(F)COC(OCC(F)(F)F)OCC(F)(F)F [tris(Trifluoroethoxy)methane]; conditions: in DMSO
Method: as §1

[4] = compound: O=C(O)C(F)(F)C(F)(F)C(F)(F)C(F)(F)C(F)(F)C(F)(F)C(F)(F)F [Perfluorooctanoic acid]; conditions: in DMSO
Method: as §1

[5] = compound: O=S(=O)(OCC(F)(F)F)C(F)(F)C(F)(F)C(F)(F)C(F)(F)F [2,2,2-Trifluoroethyl perfluorobutanesulfonate]; conditions: in DMSO
Method: as §1

[6] = compound: OCC(F)(F)C(F)(F)C(F)(F)C(F)(F)C(F)(F)C(F)(F)C(F)(F)C(F)(F)C(F)(F)C(F)(F)C(F)(F)F [11:1 Fluorotelomer alcohol]; conditions: in DMSO
Method: as §1

[7] = compound: OCCCCC(F)(F)C(F)(F)C(F)(F)C(F)(F)F [4:4 Fluorotelomer alcohol]; conditions: in DMSO
Method: as §1

| Test System | level (log10) [1] | level (log10) ([2]; 6700 nM) | level (log10) ([2]; 20000 nM) | level (log10) ([2]; 60000 nM) | level (log10) ([3]; 6700 nM) | level (log10) ([3]; 20000 nM) | level (log10) ([3]; 60000 nM) | level (log10) ([4]; 6700 nM) | level (log10) ([4]; 20000 nM) | level (log10) ([4]; 60000 nM) | level (log10) ([5]; 6700 nM) | level (log10) ([5]; 20000 nM) | level (log10) ([5]; 60000 nM) | level (log10) ([6]; 1100 nM) | level (log10) ([6]; 3300 nM) | level (log10) ([6]; 10000 nM) | level (log10) ([7]; 6700 nM) | level (log10) ([7]; 20000 nM) | level (log10) ([7]; 60000 nM) |
| --- | --- | --- | --- | --- | --- | --- | --- | --- | --- | --- | --- | --- | --- | --- | --- | --- | --- | --- | --- |
| 3C:CCL2/MCP-1 | 0.025 ± 0.044 | 0.005 ± 0.0042 | -0.0155 ± 0.0064 | 0.019 ± 0.016 | -0.0065 ± 0.019 | -0.0115 ± 0.022 | 0.021 ± 0.048 | 0.0055 ± 0.016 | 0.008 ± 0.0071 | 0.04 ± 0.034 | 0.0095 ± 0.011 | 0.004 ± 0.035 | 0.023 ± 0.057 | -0.0005 ± 0.0064 | -0.007 ± 0.021 | 0.003 ± 0.04 | 0.004 ± 0.014 | -0.0205 ± 0.011 | -0.0105 ± 0.037 |
| 3C:CD54/ICAM-1 | -0.028 ± 0.0085 | -0.009 ± 0.02 | -0.0205 ± 0.018 | 0.002 ± 0.0085 | 0.004 ± 0.0042 | -0.0105 ± 0.0064 | -0.0145 ± 0.00071 | -0.0145 ± 0.0035 | -0.007 ± 0.0042 | 0.0185 ± 0.0078 | -0.006 ± 0.0028 | -0.0105 ± 0.0021 | -0.0095 ± 0.0064 | 0.011 ± 0.03 | 0.0305 ± 0.028 | 0.0385 ± 0.018 | 0 ± 0.037 | -0.017 ± 0.041 | -0.002 ± 0.047 |
| 3C:CD62E/E-Selectin | -0.066 ± 0.0057 | -0.0165 ± 0.011 | -0.0145 ± 0.022 | 0.001 ± 0.035 | -0.022 ± 0.0014 | -0.0185 ± 0.0078 | -0.0245 ± 0.0035 | 0.001 ± 0.0042 | 0.0195 ± 0.0035 | 0.0725 ± 0.0078 | -0.0085 ± 0.013 | -0.0385 ± 0.021 | -0.0045 ± 0.016 | -0.0125 ± 0.013 | 0.008 ± 0.0028 | 0.0155 ± 0.0078 | -0.004 ± 0.0014 | -0.0055 ± 0.032 | 0.0105 ± 0.012 |
| 3C:CD106/VCAM-1 | -0.058 ± 0.0071 | -0.0185 ± 0.015 | -0.027 ± 0.041 | -0.024 ± 0.05 | -0.002 ± 0.016 | -0.0045 ± 0.019 | 0.0095 ± 0.0078 | -0.0435 ± 0.053 | -0.0325 ± 0.05 | -0.013 ± 0.067 | -0.0165 ± 0.012 | -0.016 ± 0.0085 | 0.0015 ± 0.0021 | 0.008 ± 0.016 | 0.007 | 0.022 ± 0.0099 | -0.01 ± 0.0057 | -0.01 ± 0.016 | -0.0015 ± 0.0035 |
| 3C:CD141/Thrombomodulin | -0.079 ± 0.021 | -0.0015 ± 0.036 | -0.0295 ± 0.0035 | 0.023 ± 0.072 | -0.012 ± 0.061 | -0.038 ± 0.047 | -0.0425 ± 0.049 | 0.023 ± 0.065 | -0.011 ± 0.081 | -0.0115 ± 0.039 | -0.024 ± 0.018 | -0.041 ± 0.028 | -0.051 ± 0.016 | 0.0225 ± 0.021 | 0.0705 ± 0.00071 | 0.09 ± 0.02 | -0.0225 ± 0.035 | -0.0265 ± 0.067 | -0.007 ± 0.076 |
| 3C:CD142/Tissue Factor | -0.134 ± 0.04 | 0.0065 ± 0.029 | 0.0115 ± 0.0035 | 0.0155 ± 0.021 | -0.0195 ± 0.07 | -0.009 ± 0.052 | -0.028 | 0.0395 ± 0.057 | 0.0135 ± 0.071 | 0.049 ± 0.011 | 0.0285 ± 0.046 | 0.011 ± 0.037 | -0.018 ± 0.034 | 0.028 ± 0.024 | 0.074 ± 0.034 | 0.0865 ± 0.0092 | -0.0215 ± 0.025 | -0.018 ± 0.042 | 0.0155 ± 0.0092 |
| BE3C:Keratin 8/18 | 0.0075 ± 0.005 | -0.013 ± 0.0014 | -0.014 ± 0.0085 | 0.0085 ± 0.033 | -0.0035 ± 0.019 | -0.0215 ± 0.021 | 0.01 ± 0.0057 | -0.0145 ± 0.0064 | -0.01 ± 0.0014 | 0.0065 ± 0.028 | -0.0055 ± 0.005 | -0.0075 ± 0.015 | -0.009 ± 0.0085 | 0.0065 ± 0.04 | -0.016 ± 0.035 | 0.018 ± 0.025 | -0.0025 ± 0.0035 | -0.012 ± 0.0042 | 0.0055 ± 0.015 |
| BE3C:MMP-1 | -0.0035 ± 0.011 | -0.015 ± 0.0085 | -0.013 ± 0.023 | 0.0365 ± 0.08 | 0.004 ± 0.059 | 0.004 ± 0.025 | 0.01 ± 0.0099 | -0.0085 ± 0.012 | 0.044 | 0.226 ± 0.035 | 0.01 ± 0.031 | 0.0165 ± 0.00071 | 0.0165 ± 0.00071 | -0.0275 ± 0.018 | -0.0685 ± 0.015 | -0.077 | 0.0005 ± 0.03 | 0.006 ± 0.02 | 0.022 ± 0.05 |
| BE3C:MMP-9 | -0.0435 ± 0.018 | -0.027 ± 0.0071 | -0.016 ± 0.0042 | -0.011 ± 0.024 | -0.005 ± 0.0028 | -0.004 ± 0.0014 | 0.0045 ± 0.019 | -0.0185 ± 0.012 | 0.015 ± 0.0028 | 0.079 ± 0.047 | -0.0355 ± 0.021 | -0.041 ± 0.033 | -0.061 ± 0.028 | -0.0475 ± 0.029 | -0.102 ± 0.0042 | -0.0735 ± 0.019 | 0.0035 ± 0.032 | 0.014 ± 0.028 | 0.031 ± 0.045 |
| BE3C:PAI-I | 0.0495 ± 0.025 | -0.0355 ± 0.0092 | -0.018 | 0.0055 ± 0.025 | -0.0015 ± 0.0035 | -0.0005 ± 0.00071 | -0.0045 ± 0.00071 | 0.001 ± 0.0042 | 0.0395 ± 0.013 | 0.041 ± 0.0028 | -0.0005 ± 0.011 | 0.003 ± 0.0085 | 0.014 ± 0.011 | -0.045 ± 0.057 | -0.0855 ± 0.054 | -0.0555 ± 0.07 | -0.026 ± 0.02 | -0.002 ± 0.031 | 0.011 |
| BE3C:SRB | -0.006 ± 0.0028 | -0.0045 ± 0.0021 | -0.0045 ± 0.0064 | 0.006 ± 0.018 | -0.002 ± 0.0028 | 0.005 ± 0.0057 | -0.002 ± 0.0085 | -0.0065 ± 0.00071 | -0.0025 ± 0.0021 | -0.014 ± 0.0099 | 0 ± 0.0071 | 0.004 ± 0.0042 | 0.005 | -0.03 ± 0.014 | -0.0485 ± 0.005 | -0.0235 ± 0.0064 | -0.0065 ± 0.0035 | -0.0035 ± 0.005 | 0.0015 ± 0.016 |
| BE3C:tPA | -0.077 ± 0.0099 | -0.034 ± 0.02 | -0.051 ± 0.0042 | -0.002 ± 0.04 | -0.0075 ± 0.013 | -0.028 ± 0.024 | -0.0125 ± 0.021 | -0.0515 ± 0.025 | -0.0285 ± 0.036 | -0.038 ± 0.0085 | 0.0045 ± 0.021 | 0.028 ± 0.016 | 0.085 ± 0.031 | -0.0125 ± 0.011 | -0.033 ± 0.011 | -0.008 ± 0.016 | -0.0075 ± 0.00071 | -0.013 ± 0.038 | 0.015 ± 0.021 |
| BE3C:uPA | -0.02 ± 0.014 | -0.0175 ± 0.005 | -0.008 ± 0.0028 | -0.001 ± 0.017 | 0.0075 ± 0.021 | -0.004 ± 0.0071 | -0.0175 ± 0.00071 | -0.014 ± 0.013 | -0.0065 ± 0.0021 | 0.0185 ± 0.015 | -0.001 ± 0.0099 | -0.013 ± 0.0014 | -0.0135 ± 0.023 | -0.0155 ± 0.013 | -0.0405 ± 0.0078 | -0.0175 ± 0.0035 | 0.0035 ± 0.011 | -0.0115 ± 0.00071 | 0.0015 ± 0.0021 |
| CASM3C:CCL2/MCP-1 | -0.0195 ± 0.0064 | -0.0085 ± 0.0021 | -0.012 ± 0.016 | 0.0085 ± 0.032 | 0.001 ± 0.0042 | -0.0005 ± 0.0064 | 0.0215 ± 0.035 | 0.007 ± 0.0085 | -0.01 ± 0.03 | 0.0215 ± 0.022 | -0.0155 ± 0.0035 | -0.0105 ± 0.005 | 0.0065 ± 0.0035 | -0.01 ± 0.024 | -0.0055 ± 0.012 | 0.012 ± 0.025 | -0.004 ± 0.011 | -0.025 ± 0.0099 | 0.0285 ± 0.059 |
| CASM3C:CD87/uPAR | -0.0235 ± 0.013 | -0.035 ± 0.021 | -0.027 ± 0.011 | -0.004 ± 0.0014 | -0.0095 ± 0.018 | -0.007 ± 0.023 | -0.021 ± 0.0085 | -0.049 ± 0.047 | -0.021 ± 0.082 | -0.0035 ± 0.067 | -0.047 ± 0.064 | -0.0215 ± 0.059 | -0.048 ± 0.033 | 0.0055 ± 0.025 | -0.004 ± 0.021 | 0.0085 ± 0.032 | -0.009 ± 0.028 | -0.0135 ± 0.029 | -0.0045 ± 0.025 |
